Measured values reported in US9326973B2, “Hepatitis C virus inhibitors” (priority 2012, dated 2016).

System: HCV replicon, genotype-1a variant with glutamine 30 changed to glutamate in the NS5A protein
Test: microbe, parasite or virus in culture
Type: cell-based, HCV genotype 1a
Details: HCV replicon genotype 1a Q30E (Q→E) variant; test compound titrated with an NS5A-targeting compound (BMS-790052 fixed at 200 nM); ranking of synergist activity
Summary of the method: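 Synergy was assessed by combining several fixed amounts of an NS5A-targeting compound with a titration of the second compound of interest.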

SMILES | Fold-Synergistic 1a (Q30E)
CC(C)(C)[C@H](NC(=O)C1CC(=O)C1)c1nc(-c2ccc(-c3ccc(-c4c[nH]c([C@@H](NC(=O)C5CC(=O)C5)C(C)(C)C)n4)cc3)cc2)c[nH]1 [Compound W-171] | >100 fold
O=C(c1ccc2ccccc2n1)N1CCC[C@H]1c1ncc(-c2ccc(-c3ccc(-c4cnc([C@@H]5CCCN5C(=O)c5ccc6ccccc6n5)[nH]4)cc3)cc2)[nH]1 [Compound S-123] | >100 fold
CC(C)(C)[C@H](NC(=O)C1(n2cncn2)CC1)c1nc(-c2ccc(-c3ccc(-c4c[nH]c([C@@H](NC(=O)C5(n6cncn6)CC5)C(C)(C)C)n4)cc3)cc2)c[nH]1 [Compound L-33] | >100 fold
CC(C)(C)[C@H](NC(=O)CC1CC(F)(F)C1)c1nc(-c2ccc(-c3ccc(-c4c[nH]c([C@@H](NC(=O)CC5CC(F)(F)C5)C(C)(C)C)n4)cc3)cc2)c[nH]1 [Compound N-120] | >100 fold
Cc1ccoc1C(=O)N1CCC[C@H]1c1ncc(-c2ccc(-c3ccc(-c4cnc([C@@H]5CCCN5C(=O)c5occc5C)[nH]4)cc3)cc2)[nH]1 [Compound S-189] | >10 fold
CC(C)(C(=O)N[C@H](c1nc(-c2ccc(-c3ccc(-c4c[nH]c([C@@H](NC(=O)C(C)(C)C5(O)CCC(F)(F)CC5)C5CC5)n4)cc3)cc2)c[nH]1)C1CC1)C1(O)CCC(F)(F)CC1 [Compound L-91] | >100 fold
CC1(C)CCCC(C)(C(=O)N[C@H](c2nc(-c3ccc(-c4ccc(-c5c[nH]c([C@@H](NC(=O)C6(C)CCCC(C)(C)O6)C(C)(C)C)n5)cc4)cc3)c[nH]2)C(C)(C)C)O1 (some centres unmarked) [Compound W-165] | >100 fold
O=C(Cc1ccccn1)N1CCC[C@H]1c1ncc(-c2ccc(-c3ccc(-c4cnc([C@@H]5CCCN5C(=O)Cc5ccccn5)[nH]4)cc3)cc2)[nH]1 [Compound S-149] | <10 fold
CC(C)(OCC(F)F)C(=O)N[C@H](c1nc(-c2ccc(-c3ccc(-c4c[nH]c([C@@H](NC(=O)C(C)(C)OCC(F)F)C5(C)CC5)n4)cc3)cc2)c[nH]1)C1(C)CC1 [Compound Y-64] | >100 fold
COC(=O)N[C@H](C(=O)N[C@H](c1ncc(-c2ccc(C#Cc3ccc(-c4cnc([C@@H](NC(=O)[C@@H](NC(=O)OC)C(C)C)C(C)C)[nH]4)cc3)cc2)[nH]1)C(C)C)C(C)C [Compound N-5] | >10 fold
C[C@H]1C[C@@H](C(=O)N[C@H](c2nc(-c3ccc(-c4ccc(-c5c[nH]c([C@@H](NC(=O)[C@@H]6C[C@H](C)CN6C(=O)OC(C)(C)C)C(C)(C)C)n5)cc4)cc3)c[nH]2)C(C)(C)C)N(C(=O)OC(C)(C)C)C1 [Compound W-68] | >100 fold
CC(C)(C)[C@H](NC(=O)C(F)(F)C(O)c1cccnc1)c1nc(-c2ccc(-c3ccc(-c4c[nH]c([C@@H](NC(=O)C(F)(F)C(O)c5cccnc5)C(C)(C)C)n4)cc3)cc2)c[nH]1 (some centres unmarked) [Compound S-283] | >100 fold
O=C(c1nccc2c(Cl)cccc12)N1CCC[C@H]1c1ncc(-c2ccc(-c3ccc(-c4cnc([C@@H]5CCCN5C(=O)c5nccc6c(Cl)cccc56)[nH]4)cc3)cc2)[nH]1 [Compound S-206] | >100 fold
CC(C)(C)[C@H](NC(=O)[C@@H](O)C1CCCCC1)c1nc(-c2ccc(-c3ccc(-c4c[nH]c([C@@H](NC(=O)[C@@H](O)C5CCCCC5)C(C)(C)C)n4)cc3)cc2)c[nH]1 [Compound L-77] | >100 fold
Cc1ncccc1C(=O)N1CCC[C@H]1c1ncc(-c2ccc(-c3ccc(-c4cnc([C@@H]5CCCN5C(=O)c5cccnc5C)[nH]4)cc3)cc2)[nH]1 [Compound S-188] | <10 fold
CC(C)N(C(=O)C(=O)N[C@H](c1nc(-c2ccc(-c3ccc(-c4c[nH]c([C@@H](NC(=O)C(=O)N(C(C)C)C5CC5)C5(C)CC5)n4)cc3)cc2)c[nH]1)C1(C)CC1)C1CC1 [Compound W-58] | >100 fold
O=C(C1CCCCC1)N1CCC[C@H]1c1ncc(-c2ccc(-c3ccc(-c4cnc([C@@H]5CCCN5C(=O)C5CCCCC5)[nH]4)cc3)cc2)[nH]1 [Compound S-167] | <10 fold
CC(C)CC(=O)NC1(c2nc(-c3ccc(-c4ccc(-c5c[nH]c(C6(NC(=O)CC(C)C)CC=CC6)n5)cc4)cc3)c[nH]2)CC=CC1 [Compound N-16] | <10 fold
C[C@@H]1CCCCN1C(=O)C(C)(C)C(=O)N[C@H](c1nc(-c2ccc(-c3ccc(-c4c[nH]c([C@@H](NC(=O)C(C)(C)C(=O)N5CCCC[C@H]5C)C(C)(C)C)n4)cc3)cc2)c[nH]1)C(C)(C)C [Compound W-148] | >100 fold
CC(C)(C)C(=O)N[C@H](c1nc(-c2ccc(-c3cnc(-c4c[nH]c([C@@H](NC(=O)C(C)(C)C)C(C)(C)C)n4)cn3)cc2)c[nH]1)C(C)(C)C [Compound N-105] | >100 fold
CC(C)(C)[C@H](NC(=O)C(O)(C1CC1)C1CC1)c1nc(-c2ccc(-c3ccc(-c4c[nH]c([C@@H](NC(=O)C(O)(C5CC5)C5CC5)C(C)(C)C)n4)cc3)cc2)c[nH]1 [Compound P-169] | >100 fold

SMILES | Fold-Synergistic 1a (Q30E)
COC(=O)N[C@H](C(=O)N[C@H](c1nc(-c2ccc(-c3ccc(-c4c[nH]c([C@@H](NC(=O)[C@@H](NC(=O)OC)C(C)C)C5CC5)n4)cc3)cc2)c[nH]1)C1CC1)C(C)C [Compound P-3] | >10 fold
CC(C)(C)OC(=O)N[C@]1(C(=O)N[C@H](c2nc(-c3ccc(-c4ccc(-c5c[nH]c([C@@H](NC(=O)[C@@]6(NC(=O)OC(C)(C)C)C[C@H]6c6ccccc6)C(C)(C)C)n5)cc4)cc3)c[nH]2)C(C)(C)C)C[C@H]1c1ccccc1 [Compound W-8] | >100 fold
CC(C)[C@H](NC(=O)C(C)(C)OCC(F)F)c1nc(-c2ccc(-c3ccc(-c4c[nH]c([C@@H](NC(=O)C(C)(C)OCC(F)F)C(C)C)n4)c(F)c3)cc2)c[nH]1 [Compound N-91] | >100 fold
CC(C)(C)[C@H](NC(=O)C1(CO)CCCCO1)c1nc(-c2ccc(-c3ccc(-c4c[nH]c([C@@H](NC(=O)C5(CO)CCCCO5)C(C)(C)C)n4)cc3)cc2)c[nH]1 (some centres unmarked) [Compound P-180] | >100 fold
CC(C)(C)[C@H](NC(=O)C(=O)N1CC(F)(F)C1)c1nc(-c2ccc(-c3ccc(-c4c[nH]c([C@@H](NC(=O)C(=O)N5CC(F)(F)C5)C(C)(C)C)n4)cc3)cc2)c[nH]1 [Compound W-28] | >100 fold
CC(C)(C)[C@H](NC(=O)[C@@]1(C)CCCCO1)c1nc(-c2ccc(-c3ccc(-c4c[nH]c([C@@H](NC(=O)[C@@]5(C)CCCCO5)C(C)(C)C)n4)cc3)cc2)c[nH]1 [Compound P-176] | >100 fold
CC(C)(C(=O)N[C@H](c1nc(-c2ccc(-c3ccc(-c4c[nH]c([C@@H](NC(=O)C(C)(C)C(=O)N5CCC(F)(F)CC5)C(C)(C)C)n4)cc3)cc2)c[nH]1)C(C)(C)C)C(=O)N1CCC(F)(F)CC1 [Compound W-141] | >100 fold
CC(C)CC(=O)NC(C)(C)c1nc(-c2ccc(-c3ccc(-c4c[nH]c(C(C)(C)NC(=O)CC(C)C)n4)cc3)cc2)c[nH]1 [Compound N-26] | <10 fold
O=C(C1CC1)N1CCC[C@H]1c1ncc(-c2ccc(-c3ccc(-c4cnc([C@@H]5CCCN5C(=O)C5CC5)[nH]4)cc3)cc2)[nH]1 [Compound S-109] | <10 fold
COC1CC(C(=O)N[C@H](c2nc(-c3ccc(-c4ccc(-c5c[nH]c([C@@H](NC(=O)C6CC(OC)C6)C(C)(C)C)n5)cc4)cc3)c[nH]2)C(C)(C)C)C1 (stereo partly drawn) [Compound L-54] | >100 fold
CC(C)N(CC(F)(F)F)C(=O)C(=O)N[C@H](c1nc(-c2ccc(-c3ccc(-c4c[nH]c([C@@H](NC(=O)C(=O)N(CC(F)(F)F)C(C)C)C(C)(C)C)n4)cc3)cc2)c[nH]1)C(C)(C)C [Compound W-66] | >100 fold
CC(C)CC(=O)NC1(c2nc(-c3ccc(-c4ccc(-c5c[nH]c(C6(NC(=O)CC(C)C)Cc7ccccc7C6)n5)cc4)cc3)c[nH]2)Cc2ccccc2C1 [Compound N-19] | <10 fold
CC(C)(C)[C@H](NC(=O)C1CCC(C(F)F)CC1)c1nc(-c2ccc(-c3ccc(-c4c[nH]c([C@@H](NC(=O)C5CCC(C(F)F)CC5)C(C)(C)C)n4)cc3)cc2)c[nH]1 (some centres unmarked) [Compound Y-71] | >100 fold
O=C(Cc1ccncc1)N1CCC[C@H]1c1ncc(-c2ccc(-c3ccc(-c4cnc([C@@H]5CCCN5C(=O)Cc5ccncc5)[nH]4)cc3)cc2)[nH]1 [Compound S-150] | <10 fold
O=C(N1CCC[C@H]1c1ncc(-c2ccc(-c3ccc(-c4cnc([C@@H]5CCCN5C(=O)C5(c6ccc(F)cc6Cl)CCCC5)[nH]4)cc3)cc2)[nH]1)C1(c2ccc(F)cc2Cl)CCCC1 [Compound S-156] | <10 fold
CC(C)(C)[C@H](NC(=O)[C@H](O)C(F)(F)F)c1nc(-c2ccc(-c3ccc(-c4c[nH]c([C@@H](NC(=O)[C@H](O)C(F)(F)F)C(C)(C)C)n4)cc3)cc2)c[nH]1 [Compound L-81] | >100 fold
CC(C)(C)CC(=O)N1CCC[C@H]1c1ncc(-c2ccc(-c3ccc(-c4cnc([C@@H]5CCCN5C(=O)CC(C)(C)C)[nH]4)cc3)cc2)[nH]1 [Compound S-197] | <10 fold
CC(C)N(C(=O)C(=O)N[C@H](c1nc(-c2ccc(-c3ccc(-c4c[nH]c([C@@H](NC(=O)C(=O)N(C(C)C)C5CC5)C(C)(C)C)n4)cc3)cc2)c[nH]1)C(C)(C)C)C1CC1 [Compound W-49] | >100 fold
CC(C)(C)OC(=O)N1C[C@H](O)C[C@H]1C(=O)N[C@H](c1nc(-c2ccc(-c3ccc(-c4c[nH]c([C@@H](NC(=O)[C@@H]5C[C@@H](O)CN5C(=O)OC(C)(C)C)C(C)(C)C)n4)cc3)cc2)c[nH]1)C(C)(C)C [Compound W-96] | >100 fold
CC(C)(C)[C@H](Nc1nc2ccccc2s1)c1nc(-c2ccc(-c3ccc(-c4c[nH]c([C@@H](Nc5nc6ccccc6s5)C(C)(C)C)n4)cc3)cc2)c[nH]1 [Compound W-183] | >10 fold
